Values of other authors in patent US6432400B1, “Specific pancreatic lipase inhibitors and their applications” (Laboratoire Laphal (Laboratoire de Pharmacologie Appliquee), priority 1997, dated 2002).

Columns and labels:
pancreatic lipase = molecular target: T1, pancreatic lipase (Homo sapiens, UniProt P16233); conditions: 1 mol of THL/mol of enzyme
T1 sequence (P16233 17-465): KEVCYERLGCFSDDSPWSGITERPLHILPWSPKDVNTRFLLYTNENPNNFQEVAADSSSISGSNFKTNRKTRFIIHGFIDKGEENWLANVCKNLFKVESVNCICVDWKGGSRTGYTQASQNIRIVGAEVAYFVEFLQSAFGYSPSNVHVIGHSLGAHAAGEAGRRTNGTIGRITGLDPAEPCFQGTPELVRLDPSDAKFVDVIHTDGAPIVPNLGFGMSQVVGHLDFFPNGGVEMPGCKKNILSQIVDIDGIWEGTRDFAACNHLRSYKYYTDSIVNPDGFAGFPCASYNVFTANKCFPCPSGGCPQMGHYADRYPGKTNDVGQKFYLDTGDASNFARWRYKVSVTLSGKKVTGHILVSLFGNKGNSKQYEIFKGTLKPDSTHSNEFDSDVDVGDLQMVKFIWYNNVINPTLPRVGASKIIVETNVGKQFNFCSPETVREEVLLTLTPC

[1] = tested on: carboxylester lipase, gastric lipase and lipase stimulated by the bile salts in human milk; conditions: inhibits carboxylester lipase, gastric lipase and bile-salt-stimulated lipase of human milk

CCCCCCCCCCC[C@@H](C[C@@H]1OC(=O)[C@H]1CCCCCC)OC(=O)[C@H](CC(C)C)NC=O [THL, tetrahydrolipstatin]
inhibition of the lipolytic activity (pancreatic lipase): complete inhibition | specificity for pancreatic lipase [1]: not specific for pancreatic lipase
